For eleven compounds, GI50 and TGI results are on record in PubChem BioAssay (NCI).

Structures are written as SMILES.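 Compound exposure: 48 hours, 5 concentrations, 96-well plates. The concentration for 50% growth inhibition is given as GI50. TGI denotes the concentration required for complete inhibition of growth.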

Common to all, as to experiment: NCI tumour cell line growth inhibition, 48 h
Assay [1] deals with HL-60(TB) leukemia.
Assay [2] concerns K-562 leukemia.
Assay [3] concerns MALME-3M melanoma.
Assay [4] concerns MOLT-4 leukemia.
Assay [5] concerns OVCAR-4 ovarian.
Assay [6] deals with SK-MEL-28 melanoma.
Assay [7] has as its system SN12C renal.
The subject of assay [8] is SW-620 colon.
Assay [9] has as its system UACC-62 melanoma.
Assay [10] relates to OVCAR-3 ovarian.

With `COc1cc2c3c(n(CCCN(CCCN(CCCn4c5c(c6ccccc6c4=O)C(=O)c4ccccc4-5)C(=O)OC(C)(C)C)C(=O)OC(C)(C)C)c(=O)c2cc1OC)-c1cc2c(cc1C3=O)OCO2`, the GI50 in assay [1], in [2], in assay [3], in [4], in assay [5] and in [6] was > 100 µM in each case. The GI50 in assay [7], in [8] and in assay [9] was > 100 µM each time. For the same compound, the TGI in [1], in assay [2], in assay [3], in assay [4], in assay [5] and in assay [6] was > 100 µM in each case. The TGI in [7], in assay [8] and in assay [9] was > 100 µM in each case.

On to `CC1CCC2C(C)C(=O)OC3OC4(C)CCC1C32OO4` (stereo not given), for which the TGI in assay [1], in assay [2], in assay [3], in [4], in assay [10] and in [5] was > 100 µM each time. Further, the TGI in assay [6], in assay [7], in assay [8] and in [9] was > 100 µM in each case. In addition, the GI50 in assay [6], in [8] and in assay [9] was > 100 µM each time.

On to `CCn1c(-c2nonc2N)nc2c(C#CC(C)(C)O)ncc(OC3CCNCC3)c21`, for which the GI50 was 8.38 µM in [1]; 11.1 µM in assay [2]; > 25 µM in assay [3]; 6.32 µM in assay [4]; 5.38 µM in assay [10]; 14.1 µM in assay [5]. Besides, the GI50 was 14.9 µM in [6], 9.21 µM in assay [7], 10.3 µM in assay [8] and 15.8 µM in assay [9]. The TGI in assay [1] was 19 µM; in assay [2], > 25 µM; in [3], > 25 µM; in [4] it was > 25 µM; in assay [10] it was 17.3 µM; in assay [5], > 25 µM. The TGI in [6], in assay [7], in [8] and in [9] was > 25 µM each time.

On to `O=C(O)CCCCn1ccc(=O)[nH]c1=O`, for which the TGI in assay [1], in [2], in assay [3], in assay [4], in assay [10] and in [5] was > 100 µM each time. For the same compound, the TGI in assay [6], in [7], in assay [8] and in assay [9] was > 100 µM in each case.

Consider `O=C([O][Hg][c]1ccccc1)c1ccccc1`, for which the GI50 in [1] was 0.325 µM; in assay [2], 1.11 µM; in [3] it was 1.77 µM; in assay [4], 1.38 µM; in assay [10], 0.298 µM; in assay [5], 1.36 µM. Also, the GI50 is 1.45 µM in [6], 0.943 µM in [8] and 1.55 µM in assay [9]. Besides, the TGI in [1] was determined as 1.86 µM; in assay [2], 4.74 µM; in assay [3] it was 3.39 µM; in assay [4], 5.7 µM; in [10], 0.843 µM; in assay [5], 6.22 µM. The TGI in assay [6] stood at 2.93 µM; in [8], 2.63 µM; in assay [9], 4.18 µM.

In the case of `O=C(C=Nc1ccccc1C(=O)[O-])c1cccs1.O=C(C=Nc1ccccc1C(=O)[O-])c1cccs1.[Ni+2]`, the TGI in assay [1], in assay [2], in assay [3], in assay [4], in [10] and in [6] was > 100 µM in each case. Besides, the TGI in assay [7], in [8] and in assay [9] was > 100 µM in each case.

For the compound `COc1ccc2c(c1)[n+]([O-])c(-c1cccc(Cl)c1)c(N)[n+]2[O-]`, the TGI in [1] is 95.6 µM; in assay [2], > 100 µM; in [3], > 100 µM; in assay [4] it was > 100 µM; in [10], > 100 µM; in [5] it was > 100 µM. For the same compound, the TGI in assay [6] is 83 µM; in assay [7], > 100 µM; in assay [8], > 100 µM.

In the case of `COC(=O)C12CCC(C)(C)CC1C1=CCC3C4(C)CC(O)C(O)C(C)(C(=O)OC)C4CCC3(C)C1(CO)CC2` (stereo not given), the TGI in assay [1] was > 100 µM; in [2], > 100 µM; in [4], 34.4 µM; in assay [10], 31.5 µM; in assay [5], 27.8 µM; in [7], 33.2 µM. Besides, the figures for the TGI in assay [8] and in assay [9] were 27.5 µM and 28.9 µM, respectively.

As to `O=[N+]([O-])c1cc(-c2nc(=S)[nH][nH]2)ccc1O`, the TGI in assay [1], in [2], in assay [3], in [5], in [6] and in assay [7] was > 100 µM each time. Moreover, the results for the TGI in assay [8] and in assay [9] were 18.4 µM and > 100 µM, respectively.

In the case of `COc1ccc2c(c1)Oc1cc(O)ccc1[C@H]2c1ccccc1C(=O)NC(C)c1ccccc1` (stereo not given in full), the TGI in assay [1] was 44.1 µM; in assay [2], > 100 µM; in assay [3], 46.2 µM; in [4], 64.8 µM; in assay [10] it was 29.4 µM; in assay [6] it was 34.7 µM. In addition, the TGI in [7] was found to be 31.6 µM; in assay [8], 35.6 µM; in assay [9], 24.8 µM.

In the case of `Cc1ccc([P+](Cc2ccccc2)(c2ccccc2)c2ccccc2)cc1`, the GI50 in assay [1] is 1.14 µM; in [2], 1.26 µM; in assay [4], 3.32 µM; in assay [10], 1.52 µM; in assay [5] it was 2.62 µM; in [6] it was 3.13 µM. Also, the GI50 in [7] is 2.66 µM; in [8], 2.66 µM; in assay [9], 1.77 µM. The TGI in [1] is 3.69 µM; in [2] it was > 100 µM; in assay [4], 14 µM; in assay [10] it was 65.8 µM; in assay [5], > 100 µM; in [6], 25.8 µM. The TGI in assay [7] stood at 13.1 µM; in assay [8], 49.6 µM; in assay [9] it was 11.3 µM.
